Measurements: paper PMC9810272 (Nature, 2022)
Where two headings read alike, the source gives them in different places.

Columns and labels:
yeast Tango2p [1] = molecular target: T1, yeast Tango2p (Saccharomyces cerevisiae, UniProt P53275); assay: UV-vis difference spectra titration; type: binding
T1 sequence (P53275 1-312): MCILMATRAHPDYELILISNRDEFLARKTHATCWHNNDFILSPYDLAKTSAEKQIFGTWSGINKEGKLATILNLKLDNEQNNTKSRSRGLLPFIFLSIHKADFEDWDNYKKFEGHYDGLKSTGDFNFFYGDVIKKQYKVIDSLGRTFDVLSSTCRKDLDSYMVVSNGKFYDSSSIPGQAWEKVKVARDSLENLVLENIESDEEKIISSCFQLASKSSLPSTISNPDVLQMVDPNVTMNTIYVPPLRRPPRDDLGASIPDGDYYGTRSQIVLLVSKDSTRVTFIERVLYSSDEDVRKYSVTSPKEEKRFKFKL

yeast Tango2p [2] = molecular target: T1, yeast Tango2p; assay: UV-vis difference spectra titration; type: binding; remark: listed apart in the source

| Structure (SMILES) | Kd (yeast Tango2p [1]) | Kd (yeast Tango2p [2]) |
| --- | --- | --- |
| C=CC1=C(C)C2=Cc3c(C=C)c(C)c4[n]3[Fe][n]3c(c(C)c(CCC(=O)O)c3=CC3=NC(=C4)C(C)=C3CCC(=O)O)=CC1=N2 [ferric haem] | 38.7 µM | – |
| C=CC1=C(C)C2=Cc3c(C=C)c(C)c4[n]3[Fe][n]3c(c(C)c(CCC(=O)O)c3=CC3=NC(=C4)C(C)=C3CCC(=O)O)=CC1=N2 [ferrous haem] | – | 15.4 µM |
